For eight molecules, IC50 results are on record in US9957264B2 (Merck Sharp & Dohme Corp., priority 2013, dated 2018).

Assay [1] has as its target JAK1 (recombinant purified GST-tagged catalytic domain) (Homo sapiens (Human), UniProt P23458). Briefly: Jak Biochemical HTRF Assay (JAK1). The following applies: [ATP] 31.8 μM. The method, boiled down: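 HTRF format, biotinylated peptide substrate; ATP-initiated reaction 120 min RT; EDTA quench + streptavidin-Dylight 650/Eu-anti-pY20 detection, 60 min RT; signal = 665/615 ratio ×10,000; normalized % inhibition, 4-parameter fit → IC50.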
In general terms: Time-resolved FRET reads energy transfer from a long-lived donor to a nearby acceptor.

Assay [2] addresses JAK2 (recombinant purified GST-tagged catalytic domain) (Homo sapiens (Human), UniProt O60674). Briefly: Jak Biochemical HTRF Assay (JAK2). The following applies: [ATP] 8.5 μM.

JAK2 (recombinant purified GST-tagged catalytic domain), sequence (O60674 849-1124): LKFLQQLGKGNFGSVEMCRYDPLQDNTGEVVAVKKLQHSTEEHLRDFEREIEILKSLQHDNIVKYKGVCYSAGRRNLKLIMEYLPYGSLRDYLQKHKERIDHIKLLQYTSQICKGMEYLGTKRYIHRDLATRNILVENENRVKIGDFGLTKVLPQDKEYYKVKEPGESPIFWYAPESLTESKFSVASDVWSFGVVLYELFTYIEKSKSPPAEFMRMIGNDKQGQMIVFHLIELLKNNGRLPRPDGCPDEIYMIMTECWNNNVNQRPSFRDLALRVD
JAK1 (recombinant purified GST-tagged catalytic domain), sequence (P23458 875-1153): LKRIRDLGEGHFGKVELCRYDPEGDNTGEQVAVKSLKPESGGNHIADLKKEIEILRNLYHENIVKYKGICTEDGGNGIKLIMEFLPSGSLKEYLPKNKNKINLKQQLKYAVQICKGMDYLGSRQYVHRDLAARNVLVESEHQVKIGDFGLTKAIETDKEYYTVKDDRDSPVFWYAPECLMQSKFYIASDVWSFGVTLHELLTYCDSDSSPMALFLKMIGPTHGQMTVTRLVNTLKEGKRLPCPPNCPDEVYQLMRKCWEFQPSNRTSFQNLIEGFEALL

By IC50 is commonly meant the midpoint of a concentration-inhibition curve. Regarding `CN(C)S(=O)(=O)c1ccc(Nc2nn([C@@]3(CC#N)CCN(C(=O)OC(C)(C)C)C[C@H]3F)c3cc[nH]c(=O)c23)cc1` [Example 5-18, tert-butyl (3R,4R)-4-(cyanomethyl)-4-(3-{[4-(dimethylsulfamoyl)phenyl]amino}-4-oxo-4,5-dihydro-1H-pyrazolo [4,3-c]pyridin-1-yl)-3-fluoropiperidine-1-carboxylate], the results for the IC50 in assay [1] and in assay [2] were 0.1 nM and 0.12 nM, respectively.

Regarding `CN(C(C)(C)C)S(=O)(=O)c1ccc(Nc2nn(C3(CC#N)CCN(C(=O)C(C)(F)F)CC3)c3cc[nH]c(=O)c23)cc1` [Example 5-58, N-(tert-butyl)-4-((1-(4-(cyanomethyl)-1-(2,2-difluoropropanoyl)piperidin-4-yl)-4-oxo-4,5-dihydro-1H-pyrazolo[4,3-c]pyridin-3-yl)amino)-N-methylbenzenesulfonamide], the IC50 came out at 0.14 nM in assay [1] and 0.18 nM in assay [2].

As for `Cc1cc(Nc2nn([C@]3(CC#N)CCCOC3)c3cc[nH]c(=O)c23)ccc1C(=O)N1CCCC[C@@H]1C` [Example 20-2, 2-((S)-3-(3-((3-methyl-4-((S)-2-methylpiperidine-1-carbonyl)phenyl)amino)-4-oxo-4,5-dihydro-1H-pyrazolo[4,3-c]pyridin-1-yl)tetrahydro-2H-pyran-3-yl)acetonitrile], the figures for the IC50 in assay [1] and in assay [2] were 0.43 nM and 0.62 nM, respectively.

As to `CC(O)(c1ccc(Nc2nn([C@]3(CC#N)CCCOC3)c3cc[nH]c(=O)c23)cc1)C(F)(F)F` (single isomer, unassigned) [Example 5-111, {(3S)-3-[4-oxo-3-({4-[(1R or 1S)-2,2,2-trifluoro-1-hydroxy-1-methylethyl]phenyl}amino)-4,5-dihydro-1H-pyrazolo[4,3-c]pyridin-1-yl]tetrahydro-2H-pyran-3-yl}acetonitrile], the values for the IC50 in assay [1] and in assay [2] were 0.09 nM and 0.35 nM, respectively.

On to `CC(C)(C)S(=O)(=O)c1ccc(Nc2nn([C@]3(CC#N)CCCOC3)c3cc[nH]c(=O)c23)cc1` [Example 5-183, [(3S)-3-(3-{[4-(tert-butylsulfonyl)phenyl]amino}-4-oxo-4,5-dihydro-1H-pyrazolo[4,3-c]pyridin-1-yl)tetrahydro-2H-pyran-3-yl]acetonitrile], for which the 50% inhibitory concentration (IC50) in assay [1] came to 0.17 nM; in assay [2], 0.47 nM.

As for `N#CC[C@]1(n2nc(Nc3ccc(Cl)cc3)c3c(=O)[nH]ccc32)CC[C@@H](N2CC(F)C2)CC1` [Example 18-7, Cis 2-(1-(3-((4-chlorophenyl)amino)-4-oxo-4,5-dihydro-1H-pyrazolo[4,3-c]pyridin-1-yl)-4-(3-fluoroazetidin-1-yl)cyclohexyl)acetonitrile], the IC50 in assay [1] was determined as 2.98 nM; in assay [2], 19.8 nM.

Regarding `Cc1cc(Nc2nn([C@]3(CC#N)CC[C@@H](C(=O)OC(C)(C)C)OC3)c3cc[nH]c(=O)c23)ccc1C(=O)N1CCOCC1C` (single isomer, unassigned) [Example 20-8, (2S,5S)-tert-butyl 5-(cyanomethyl)-5-(3-((3-methyl-4-((S or R)-3-methylmorpholine-4-carbonyl)phenyl)amino)-4-oxo-4,5-dihydro-1H-pyrazolo[4,3-c]pyridin-1-yl)tetrahydro-2H-pyran-2-carboxylate], the IC50 worked out at 0.15 nM in assay [1] and 0.16 nM in assay [2].

Take `CC(C)(C)OC(=O)N1CCC(CC#N)(n2nc(NC3CCC3)c3c(=O)[nH]ccc32)CC1` [Example 2-3, tert-butyl 4-(cyanomethyl)-4-[3-(cyclobutylamino)-4-oxo-4,5-dihydro-1H-pyrazolo[4,3-c]pyridin-1-yl]piperidine-1-carboxylate]: the IC50 was 67.6 nM in assay [1] and above 1500 nM in assay [2].
